Earlier results on one compound are cited in US11136326B2, “Pyrrolopyrimidine derivatives as TAM inhibitors” (Incyte Corporation, priority 2015, dated 2021).

The series has as its system NK cells.

Take `CCOc1cn(-c2ccc(F)cc2C)nc1C(=O)Nc1ccc(Oc2ccnc3cc(OC)c(OC)cc23)c(F)c1` [LDC1267]: the NK cell activation entry was “activates NK cells”.
